The test system of assay [1] is NCI-H2228 cells (EML4-ALK fusion). The assay is described as follows: BrdU ELISA proliferation of NCI-H2228 cells. In kind it is cell-based. The note with it: Homo sapiens, BrdU incorporation. Here is the method: (§1) Both HCC-78 and NCI-H2228 cells were received from DSMZ and ATCC respectively as a frozen biological sample thawed into a T-75 flask (Nunc) and grown until 80 to 90% confluent for adherent cells or until cells were at a density of 1-2×10^6 cells/mL for suspension cells.
(§2) Cells were grown at 37° C. in a humidified, 5% CO2 atmosphere for 16 hours. […] Cells were assayed for proliferation by monitoring BrdU incorporation. […] After BrdU labelling, cells were fixed with FixDenat solution. anti-BrdU peroxidase (POD) conjugate was added and plates were washed with 1×PBS. Substrate solution was added, and luminescence measurements were taken on a Victor Wallac V plate reader (Perkin Elmer).
(In general: Incorporation of labelled thymidine or its analogues reports DNA synthesis.)

Assay [2] has as its system HCC-78 NSCLC cells (SLC34A2-ROS1 fusion). Description: ROS1-dependent proliferation of HCC-78 NSCLC cells (BrdU ELISA). The assay is classed as cell-based. The note with it: Homo sapiens. As for the experimental part: as §1, §2
The target of assay [3] is T1, SLC34A2-ROS1 fusion (Homo sapiens, UniProt P08922).
T1 construct: a portion of the ROS1 polypeptide comprising the kinase domain of the ROS1 protein; N-terminal portion of SLC34A2 (natural fusion partner, O95436); host or cells: HCC-78 (human NSCLC adenocarcinoma); the other entry of the earlier key: SLC34A2 (O95436, Sodium-dependent phosphate transport protein 2B)
The assay is described as follows: Inhibition of ROS1 phosphorylation in HCC-78 cells (western blot). The assay is classed as cell-based. The note with it: single escalating doses, 3 hour incubation, versus Crizotinib. Here is the method: HCC-78 cells, a human lung NSCLC adenocarcinoma cell line (DSMZ, ACC 563) harboring the activating SLC34A2-ROS1 fusion and phosphor-Met, were seeded at 3×10^5 cells/well onto 6-well plates (Nunclon, 152795), RPMI 1640 (ATCC, 30-2001) containing 10% FBS (heat-inactivated, Cellgro) and 1% penicillin-streptomycin (Cellgro). DMSO or serial dilutions of compound 1 in fresh medium with 10% FBS in a final concentration of 0.3% DMSO (vehicle) were added to the cells and incubated for 3 hour. After treatment, cells were collected and washed with cold PBS and immediately lysed with 0.15 mL of cold lysis buffer (50 mM Tris HCl, pH 8.0, 150 mM NaCl, 1% NP 40, 0.1% SDS, 0.5% sodium deoxycholate, 1 mM EDTA, 50 mM NaF, 1 mM sodium pyrophosphate, 1 mM Na3VO4, 2 mM PMSF, 10 μg/mL aprotinin, 5 μg/mL leupeptin and 5 pμg/mL pepstatin A). Lysates were collected, and protein concentrations were measured by the BCA method (Pierce). […] The membranes were scanned using the Odyssey Scanner (Li-Cor) and the signal intensity of each band was quantified using ImageQuant (Molecular Devices). IC50 values were calculated based on the signal with compound treatment compared to the vehicle (DMSO) control.
A general note: Immunoblotting shows a protein as a band on a membrane.

The target of assay [4] is RET (Homo sapiens, UniProt P07949). Particulars: cited from earlier work.

Where two headings read alike, the source gives them in different places.

T1 sequence (P08922 1945-2222 limits assumed): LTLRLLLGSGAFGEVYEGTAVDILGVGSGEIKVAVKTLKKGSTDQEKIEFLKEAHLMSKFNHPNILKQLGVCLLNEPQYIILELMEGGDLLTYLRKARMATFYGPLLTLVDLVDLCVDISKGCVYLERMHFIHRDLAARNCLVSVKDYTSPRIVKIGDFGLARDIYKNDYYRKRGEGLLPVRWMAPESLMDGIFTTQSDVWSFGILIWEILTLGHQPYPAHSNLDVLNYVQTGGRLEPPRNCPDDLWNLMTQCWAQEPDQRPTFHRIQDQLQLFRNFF
Chain of RET (P07949 29-1114, species assumed): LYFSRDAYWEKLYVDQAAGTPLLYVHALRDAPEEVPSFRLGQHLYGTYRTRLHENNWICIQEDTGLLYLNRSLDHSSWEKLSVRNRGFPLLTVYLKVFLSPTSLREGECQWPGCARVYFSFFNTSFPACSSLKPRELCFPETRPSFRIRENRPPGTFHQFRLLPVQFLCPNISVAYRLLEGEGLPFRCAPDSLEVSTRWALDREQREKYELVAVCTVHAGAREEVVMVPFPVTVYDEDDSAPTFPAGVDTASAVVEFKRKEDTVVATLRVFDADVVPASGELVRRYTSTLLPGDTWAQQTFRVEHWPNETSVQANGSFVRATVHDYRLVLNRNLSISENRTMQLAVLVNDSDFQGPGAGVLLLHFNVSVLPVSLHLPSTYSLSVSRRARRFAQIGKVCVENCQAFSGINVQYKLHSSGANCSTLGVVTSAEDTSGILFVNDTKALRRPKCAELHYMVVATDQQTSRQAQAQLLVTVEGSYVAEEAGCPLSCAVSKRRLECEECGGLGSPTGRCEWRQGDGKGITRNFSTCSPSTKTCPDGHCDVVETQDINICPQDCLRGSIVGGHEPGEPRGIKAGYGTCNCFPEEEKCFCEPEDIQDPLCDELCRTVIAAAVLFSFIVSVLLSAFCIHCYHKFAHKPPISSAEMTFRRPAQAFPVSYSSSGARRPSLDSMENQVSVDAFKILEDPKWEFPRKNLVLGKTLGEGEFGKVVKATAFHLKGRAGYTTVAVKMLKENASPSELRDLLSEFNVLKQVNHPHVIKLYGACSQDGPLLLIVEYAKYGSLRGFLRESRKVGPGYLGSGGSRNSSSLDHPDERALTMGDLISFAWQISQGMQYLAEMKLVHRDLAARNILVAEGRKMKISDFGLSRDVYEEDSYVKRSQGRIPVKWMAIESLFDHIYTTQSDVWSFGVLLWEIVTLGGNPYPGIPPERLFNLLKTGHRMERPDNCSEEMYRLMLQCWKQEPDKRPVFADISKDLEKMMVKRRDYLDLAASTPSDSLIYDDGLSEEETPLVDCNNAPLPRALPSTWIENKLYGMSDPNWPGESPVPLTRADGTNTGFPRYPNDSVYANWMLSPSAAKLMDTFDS

As a reminder, the IC50 is the concentration that inhibits the measured activity by half. Regarding `COc1cc2nccc(Oc3ccc(NC(=O)C4(C(=O)Nc5ccc(F)cc5)CC4)cc3)c2cc1OC` [Compound 1, N-(4-{[6,7-bis(methyloxy)quinolin-4-yl]oxy}phenyl)-N′-(4-fluorophenyl)cyclopropane-1,1-dicarboxamide], the IC50 in assay [1] (NCI-H2228, 48 hr incubation, read-out: 48 hr Prolif. IC50) was 1000 to 5000 nM; in assay [1] (NCI-H2228, 72 hr incubation, read-out: 72 hr Prolif. IC50) it was 5000 to 10000 nM; in assay [2] (HCC78, HCC-78, 48 hr incubation, BrdU incorporation, read-out: 48 hr Prolif. IC50), 10 to 100 nM; in assay [2] (HCC78, HCC-78, 72 hr incubation, BrdU incorporation, read-out: 72 hr Prolif. IC50) it was 10 to 100 nM. Also, the “Inhibition of SLC34A2-ROS1 mediated kinase activity (ROS1 phosphorylation)” value in assay [3] is given as “more potent than the comparator control”. Besides, in assay [4], the “inhibitor of RET” value is reported as “potent inhibitor”.
`C[C@@H](Oc1cc(-c2cnn(C3CCNCC3)c2)cnc1N)c1c(Cl)ccc(F)c1Cl` [Crizotinib, 3-[(1R)-1-(2,6-dichloro-3-fluorophenyl)ethoxy]-5-(1-piperidin-4-ylpyrazol-4-yl)pyridin-2-amine, reference compound]: the IC50 in assay [2] (HCC78, 48 h, read-out: 48 hr Prolif. IC50 (nM)) lay within 100 to 500 nM; in assay [2] (HCC78, 72 h, read-out: 72 hr Prolif. IC50 (nM)), 10 to 100 nM.

The values above are taken from patent publication US20170042880A1, “Method of Treating Lung Adenocarcinoma” (Exelixis, Inc., priority 2014, published 2017).
